# Measured values taken from the supplement of paper PMC10307832.
# Compound: CC(C)CCN1c2nc(Nc3cc(F)c(O)c(F)c3)ncc2N(C)C(=O)C1C [BI-D1870] + CC(=O)Nc1cccc(-n2c(=O)n(C3CC3)c(=O)c3c(Nc4ccc(I)cc4F)n(C)c(=O)c(C)c32)c1 [Trametinib] (partner 0.02 µM)
# Test: relative viability (nuclei count vs DMSO), 5 days (fraction); higher = more cells survive
# Conditions: first compound 4 µM
# How it was run: (§1)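 Relative viability divides the nuclei count in treated wells by that in vehicle wells. Lung cancer cell lines were seeded in 1536-well plates, dosed by pin tool the next day, and fixed and stained after 5 days in one step with final 0.05% Triton X-100, 1% formaldehyde and 1 ug/ml Hoechst. Dosing was a single drug or a fixed anchor-drug dose plus five library-drug doses (not always all listed) in √10 steps, and values are medians of duplicate plates imaged at 4×.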
row,Cell Line,relative viability
1,SW 900,0.984
2,NCI-H1395,0.978
3,CAL-12T,0.311
4,NCI-H2228,0.223
5,NCI-H1793,0.429
6,NCI-H1944,0.393
7,NCI-H358,0.119

# Compound: CC(C)CCN1c2nc(Nc3cc(F)c(O)c(F)c3)ncc2N(C)C(=O)C1C [BI-D1870] + CC(C)C[C@H](NC(=O)[C@H](Cc1ccccc1)NC(=O)c1cnccn1)B(O)O [Bortezomib] (partner 0.002 µM)
# Test: as above
# Conditions: first compound 0.04 µM
# How it was run: as §1
row,Cell Line,relative viability
1,NCI-H727,0.813
2,NCI-H1650,0.214
3,EBC-1,0.685
4,NCI-H1703,0.377
5,NCI-H1993,1.22
6,SW 1573,1.08
7,NCI-H838,0.901
8,LCLC-103H,1.28
9,NCI-H520,0.618
10,NCI-H2126,1.12
11,EMC-BAC-2,1.18
12,NCI-H2085,1.17
13,Calu-6,0.972
14,HCC-366,1.1
15,NCI-H1666,0.871
16,NCI-H596,1.38
17,NCI-H2087,0.829
18,H3255,0.67
19,COR-L23,1.28
20,COR-L 105,0.835
21,IA-LM,1.05
22,LOU-NH91,0.485
23,ChaGo-K-1,1.03
24,NCI-H1299,1
25,CAL-12T,1.15
26,NCI-H2228,1.36
27,NCI-H1563,0.908
28,ABC-1,0.306

# Same assay, conditions: first compound 0.1265 µM
row,Cell Line,relative viability
1,NCI-H727,0.724
2,NCI-H1650,0.223
3,EBC-1,0.435
4,NCI-H1703,0.315
5,NCI-H1993,0.961
6,SW 1573,0.907
7,NCI-H838,0.72
8,LCLC-103H,1.09
9,NCI-H520,0.521
10,NCI-H2126,1.1
11,EMC-BAC-2,0.964
12,NCI-H2085,0.994
13,Calu-6,0.914
14,HCC-366,0.911
15,NCI-H1666,0.598
16,NCI-H596,0.86
17,NCI-H2087,0.845
18,H3255,0.779
19,COR-L23,0.844
20,COR-L 105,0.831
21,IA-LM,0.842
22,LOU-NH91,0.465
23,ChaGo-K-1,1.05
24,NCI-H1299,0.985
25,CAL-12T,0.907
26,NCI-H2228,0.999
27,NCI-H1563,0.81
28,ABC-1,0.353

# Same assay, conditions: first compound 0.4 µM
row,Cell Line,relative viability
1,NCI-H727,0.913
2,NCI-H1650,0.209
3,EBC-1,0.417
4,NCI-H1703,0.353
5,NCI-H1993,1.12
6,SW 1573,0.883
7,NCI-H838,0.747
8,LCLC-103H,1.06
9,NCI-H520,0.525
10,NCI-H2126,1.06
11,EMC-BAC-2,1.02
12,NCI-H2085,0.947
13,Calu-6,1.05
14,HCC-366,1.05
15,NCI-H1666,0.985
16,NCI-H596,1.12
17,NCI-H2087,0.927
18,H3255,0.769
19,COR-L23,0.979
20,COR-L 105,0.88
21,IA-LM,0.756
22,LOU-NH91,0.451
23,ChaGo-K-1,0.608
24,NCI-H1299,1.02
25,CAL-12T,0.932
26,NCI-H2228,1.37
27,NCI-H1563,0.802
28,ABC-1,0.232

# Same assay, conditions: first compound 1.265 µM
row,Cell Line,relative viability
1,NCI-H727,1.24
2,NCI-H1650,0.184
3,EBC-1,0.323
4,NCI-H1703,0.288
5,NCI-H1993,1.31
6,SW 1573,0.986
7,NCI-H838,1.14
8,LCLC-103H,1.17
9,NCI-H520,0.542
10,NCI-H2126,1.14
11,EMC-BAC-2,1.09
12,NCI-H2085,0.968
13,Calu-6,0.845
14,HCC-366,1.1
15,NCI-H1666,0.879
16,NCI-H596,1.19
17,NCI-H2087,1.13
18,H3255,0.969
19,COR-L23,0.926
20,COR-L 105,0.774
21,IA-LM,0.764
22,LOU-NH91,0.484
23,ChaGo-K-1,0.942
24,NCI-H1299,0.959
25,CAL-12T,0.895
26,NCI-H2228,1.05
27,NCI-H1563,0.852
28,ABC-1,0.298

# Same assay, conditions: first compound 4 µM
row,Cell Line,relative viability
1,NCI-H727,0.833
2,NCI-H1650,0.186
3,EBC-1,0.123
4,NCI-H1703,0.21
5,NCI-H1993,0.981
6,SW 1573,0.577
7,NCI-H838,0.768
8,LCLC-103H,1.06
9,NCI-H520,0.309
10,NCI-H2126,1.05
11,EMC-BAC-2,1.05
12,NCI-H2085,0.762
13,Calu-6,0.361
14,HCC-366,0.317
15,NCI-H1666,0.754
16,NCI-H596,0.943
17,NCI-H2087,0.839
18,H3255,0.748
19,COR-L23,1.03
20,COR-L 105,0.713
21,IA-LM,0.204
22,LOU-NH91,0.466
23,ChaGo-K-1,0.933
24,NCI-H1299,0.839
25,CAL-12T,0.635
26,NCI-H2228,0.401
27,NCI-H1563,0.784
28,ABC-1,0.244

# Compound: O=c1ncccn1[C@@H]1O[C@H](CO)[C@@H](O)[C@H]1O [Zebularine] + C[C@@H](Oc1cc(-c2cnn(C3CCNCC3)c2)cnc1N)c1c(Cl)ccc(F)c1Cl [Crizotinib] (partner 1 µM)
# Test: as above
# Conditions: first compound 1 µM
# How it was run: as §1
row,Cell Line,relative viability
1,NCI-H727,0.927
2,NCI-H1650,1.04
3,EBC-1,0.191
4,NCI-H1703,0.623
5,NCI-H1993,0.732
6,SW 1573,0.72
7,NCI-H838,0.93
8,LCLC-103H,1.07
